Publication PMC4929832 (Nature, 2016)
pIC50: −log10 of the molar value.

Key:
NEK2 = NEK2 (Homo sapiens, UniProt P51955); assay: kinase panel; type: biochemical
PI3K-DELTA = PI3K-DELTA (Homo sapiens, UniProt O00329); assay: kinase panel; type: biochemical
EPH-B1 = EPH-B1 (Homo sapiens, UniProt P54762); assay: kinase panel; type: biochemical
SRC = SRC (Homo sapiens, UniProt P12931); assay: kinase panel; type: biochemical
TSSK2 = TSSK2 (Homo sapiens, UniProt Q96PF2); assay: kinase panel; type: biochemical
EPH-A4 = EPH-A4 (Homo sapiens, UniProt P54764); assay: kinase panel; type: biochemical
RIPK2 = RIPK2 (Homo sapiens, UniProt O43353); assay: kinase panel; type: biochemical
AURORA-A = AURORA-A (Homo sapiens, UniProt O14965); assay: kinase panel; type: biochemical
MST3 = MST3 (Homo sapiens, UniProt Q9Y6E0); assay: kinase panel; type: biochemical
TRKB = TRKB (Homo sapiens, UniProt Q16620); assay: kinase panel; type: biochemical
SIK = SIK (Homo sapiens, UniProt P57059); assay: kinase panel; type: biochemical
ERB-B2 = ERB-B2 (Homo sapiens, UniProt P04626); assay: kinase panel; type: biochemical
EPH-A8 = EPH-A8 (Homo sapiens, UniProt P29322); assay: kinase panel; type: biochemical
MSSK1 = MSSK1 (Homo sapiens, UniProt Q9UPE1); assay: kinase panel; type: biochemical
HIPK4 = HIPK4 (Homo sapiens, UniProt Q8NE63); assay: kinase panel; type: biochemical
HIPK4, sequence (Q8NE63 whole entry): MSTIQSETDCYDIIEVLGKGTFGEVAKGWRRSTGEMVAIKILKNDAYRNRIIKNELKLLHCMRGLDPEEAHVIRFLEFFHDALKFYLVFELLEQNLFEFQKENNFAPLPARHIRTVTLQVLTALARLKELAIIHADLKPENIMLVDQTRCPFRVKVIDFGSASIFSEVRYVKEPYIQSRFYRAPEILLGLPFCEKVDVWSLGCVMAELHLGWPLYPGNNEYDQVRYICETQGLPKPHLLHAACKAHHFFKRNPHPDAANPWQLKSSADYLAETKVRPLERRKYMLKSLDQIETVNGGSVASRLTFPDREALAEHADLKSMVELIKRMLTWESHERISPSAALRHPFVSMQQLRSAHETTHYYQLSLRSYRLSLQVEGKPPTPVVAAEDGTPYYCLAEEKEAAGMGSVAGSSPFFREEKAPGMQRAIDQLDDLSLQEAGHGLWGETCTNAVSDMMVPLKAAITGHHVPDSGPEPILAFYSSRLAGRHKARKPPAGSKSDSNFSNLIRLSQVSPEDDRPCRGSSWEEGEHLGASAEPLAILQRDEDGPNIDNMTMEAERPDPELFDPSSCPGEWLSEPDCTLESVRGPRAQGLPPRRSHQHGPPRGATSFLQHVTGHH

JAK3 = JAK3 (Homo sapiens, UniProt P52333); assay: kinase panel; type: biochemical
CLK3 = CLK3 (Homo sapiens, UniProt P49761); assay: kinase panel; type: biochemical
PI3K-GAMMA = PI3K-GAMMA (Homo sapiens, UniProt P48736); assay: kinase panel; type: biochemical
H1 receptor = H1 receptor (Homo sapiens, UniProt P35367); assay: H1 receptor calcium assay; type: cell-based
MAP4K4 = MAP4K4 (Homo sapiens, UniProt O95819); assay: kinase panel; type: biochemical
CK1-GAMMA2 = CK1-GAMMA2 (Homo sapiens, UniProt P78368); assay: kinase panel; type: biochemical
PRKG1 = PRKG1 (Homo sapiens, UniProt Q13976); assay: kinase panel; type: biochemical
Histamine H1 receptor = Histamine H1 receptor (Homo sapiens, UniProt P35367); assay: Histamine H1 receptor assay; type: binding
MST2 = MST2 (Homo sapiens, UniProt Q13188); assay: kinase panel; type: biochemical
Progesterone Receptor = Progesterone Receptor (Homo sapiens, UniProt P06401); assay: Progesterone Receptor agonist assay; type: cell-based
DAPK3 = DAPK3 (Homo sapiens, UniProt O43293); assay: kinase panel; type: biochemical
AMP-A1B1G1 = AMP-A1B1G1 (Homo sapiens, UniProt Q13131); assay: kinase panel; type: biochemical
GRK6 = GRK6 (Homo sapiens, UniProt P43250); assay: kinase panel; type: biochemical
CDK4-CYCLIND = CDK4-CYCLIND (Homo sapiens, UniProt P11802); assay: kinase panel; type: biochemical
Phosphodiesterase 4D = Phosphodiesterase 4D (Homo sapiens, UniProt Q08499); assay: Phosphodiesterase 4D assay; type: biochemical
CAMK2D = CAMK2D (Homo sapiens, UniProt Q13557); assay: kinase panel; type: biochemical
CAMK2D, sequence (Q13557 whole entry): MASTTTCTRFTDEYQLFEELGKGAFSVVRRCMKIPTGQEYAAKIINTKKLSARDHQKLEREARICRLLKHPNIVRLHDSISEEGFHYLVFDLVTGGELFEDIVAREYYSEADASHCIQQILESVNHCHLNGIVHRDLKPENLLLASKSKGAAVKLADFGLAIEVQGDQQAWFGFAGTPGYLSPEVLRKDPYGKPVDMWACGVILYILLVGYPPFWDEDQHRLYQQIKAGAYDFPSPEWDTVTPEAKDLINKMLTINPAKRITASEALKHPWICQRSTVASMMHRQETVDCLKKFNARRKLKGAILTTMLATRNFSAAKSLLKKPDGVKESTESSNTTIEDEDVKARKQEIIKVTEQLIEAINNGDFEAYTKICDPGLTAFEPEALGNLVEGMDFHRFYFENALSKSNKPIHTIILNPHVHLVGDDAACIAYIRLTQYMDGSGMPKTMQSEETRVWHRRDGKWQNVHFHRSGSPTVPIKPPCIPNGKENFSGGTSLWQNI

RET = RET (Homo sapiens, UniProt P07949); assay: kinase panel; type: biochemical
DYRK1A = DYRK1A (Homo sapiens, UniProt Q13627); assay: kinase panel; type: biochemical
STK16 = STK16 (Homo sapiens, UniProt O75716); assay: kinase panel; type: biochemical
STK16, sequence (O75716 whole entry): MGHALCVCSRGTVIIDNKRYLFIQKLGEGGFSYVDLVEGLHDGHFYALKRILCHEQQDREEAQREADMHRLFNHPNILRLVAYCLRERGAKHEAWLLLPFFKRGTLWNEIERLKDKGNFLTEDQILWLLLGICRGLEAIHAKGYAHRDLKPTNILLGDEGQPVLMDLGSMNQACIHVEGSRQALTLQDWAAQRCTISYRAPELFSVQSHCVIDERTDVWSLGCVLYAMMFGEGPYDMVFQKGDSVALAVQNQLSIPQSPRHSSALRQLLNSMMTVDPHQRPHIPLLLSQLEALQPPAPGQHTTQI

CK1-GAMMA3 = CK1-GAMMA3 (Homo sapiens, UniProt Q9Y6M4); assay: kinase panel; type: biochemical
EPH-B2 = EPH-B2 (Homo sapiens, UniProt P29323); assay: kinase panel; type: biochemical
EPH-B2, sequence (P29323 19-1055): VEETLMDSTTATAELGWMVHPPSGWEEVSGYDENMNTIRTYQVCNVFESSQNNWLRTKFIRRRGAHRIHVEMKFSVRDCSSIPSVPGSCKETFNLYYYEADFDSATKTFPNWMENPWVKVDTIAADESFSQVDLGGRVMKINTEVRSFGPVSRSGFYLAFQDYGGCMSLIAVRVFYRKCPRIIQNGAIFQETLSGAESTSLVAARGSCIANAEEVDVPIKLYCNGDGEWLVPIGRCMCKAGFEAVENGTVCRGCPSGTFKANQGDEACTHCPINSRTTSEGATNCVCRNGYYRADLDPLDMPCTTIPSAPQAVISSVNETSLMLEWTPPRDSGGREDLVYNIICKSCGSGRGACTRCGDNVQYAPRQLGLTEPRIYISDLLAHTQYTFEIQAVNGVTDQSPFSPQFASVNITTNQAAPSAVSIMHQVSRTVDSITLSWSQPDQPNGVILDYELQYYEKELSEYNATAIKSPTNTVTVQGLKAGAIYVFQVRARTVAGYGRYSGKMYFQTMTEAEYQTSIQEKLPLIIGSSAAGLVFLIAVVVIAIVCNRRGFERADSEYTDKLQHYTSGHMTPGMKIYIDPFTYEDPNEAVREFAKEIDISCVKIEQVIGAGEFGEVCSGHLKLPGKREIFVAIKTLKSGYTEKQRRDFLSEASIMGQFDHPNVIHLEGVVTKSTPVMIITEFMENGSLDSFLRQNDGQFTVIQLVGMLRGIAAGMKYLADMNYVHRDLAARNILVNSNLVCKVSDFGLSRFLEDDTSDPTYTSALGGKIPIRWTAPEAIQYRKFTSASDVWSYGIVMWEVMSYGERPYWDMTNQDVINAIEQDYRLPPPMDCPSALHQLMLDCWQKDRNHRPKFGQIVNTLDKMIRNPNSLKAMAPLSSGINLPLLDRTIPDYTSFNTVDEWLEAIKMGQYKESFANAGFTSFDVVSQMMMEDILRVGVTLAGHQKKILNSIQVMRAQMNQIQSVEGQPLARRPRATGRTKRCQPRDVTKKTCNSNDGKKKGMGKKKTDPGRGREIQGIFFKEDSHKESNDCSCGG

TTK = TTK (Homo sapiens, UniProt P33981); assay: kinase panel; type: biochemical
TTK, sequence (P33981 whole entry): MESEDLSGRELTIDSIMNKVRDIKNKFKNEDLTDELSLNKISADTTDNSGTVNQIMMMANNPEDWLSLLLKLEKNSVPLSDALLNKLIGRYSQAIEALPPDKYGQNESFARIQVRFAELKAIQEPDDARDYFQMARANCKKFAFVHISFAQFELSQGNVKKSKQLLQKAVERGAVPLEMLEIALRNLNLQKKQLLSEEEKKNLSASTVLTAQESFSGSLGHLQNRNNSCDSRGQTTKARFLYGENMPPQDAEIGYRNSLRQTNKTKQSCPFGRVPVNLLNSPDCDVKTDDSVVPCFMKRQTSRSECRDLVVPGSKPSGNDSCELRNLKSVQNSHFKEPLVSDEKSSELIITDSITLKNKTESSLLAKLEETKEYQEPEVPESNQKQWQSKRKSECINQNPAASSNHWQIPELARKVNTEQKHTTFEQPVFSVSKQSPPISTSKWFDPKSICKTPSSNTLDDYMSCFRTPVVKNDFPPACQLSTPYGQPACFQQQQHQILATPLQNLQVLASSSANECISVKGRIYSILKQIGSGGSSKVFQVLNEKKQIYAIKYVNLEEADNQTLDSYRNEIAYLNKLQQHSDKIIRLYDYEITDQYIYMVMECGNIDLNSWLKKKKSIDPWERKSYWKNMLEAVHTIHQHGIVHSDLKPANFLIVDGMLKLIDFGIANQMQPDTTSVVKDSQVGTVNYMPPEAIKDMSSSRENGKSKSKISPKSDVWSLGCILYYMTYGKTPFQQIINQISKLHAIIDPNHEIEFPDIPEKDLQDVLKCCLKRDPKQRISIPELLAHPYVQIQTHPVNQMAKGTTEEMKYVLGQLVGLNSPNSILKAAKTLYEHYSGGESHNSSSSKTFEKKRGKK

RSK3 = RSK3 (Homo sapiens, UniProt Q15349); assay: kinase panel; type: biochemical
SGK2 = SGK2 (Homo sapiens, UniProt Q9HBY8); assay: kinase panel; type: biochemical
MAPK3 = MAPK3 (Homo sapiens, UniProt P27361); assay: kinase panel; type: biochemical
MAPK3, sequence (P27361 whole entry): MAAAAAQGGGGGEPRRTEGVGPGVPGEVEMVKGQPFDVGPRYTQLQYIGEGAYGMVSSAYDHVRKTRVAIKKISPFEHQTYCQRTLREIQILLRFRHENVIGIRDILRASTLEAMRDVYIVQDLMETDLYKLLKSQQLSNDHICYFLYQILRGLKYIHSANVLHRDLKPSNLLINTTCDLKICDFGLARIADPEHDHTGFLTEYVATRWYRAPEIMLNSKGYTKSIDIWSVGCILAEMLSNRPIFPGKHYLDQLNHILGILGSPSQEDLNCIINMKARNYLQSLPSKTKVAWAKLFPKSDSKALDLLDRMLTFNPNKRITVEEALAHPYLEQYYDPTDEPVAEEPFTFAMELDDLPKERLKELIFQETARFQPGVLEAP

Alpha1A adrenergic = Alpha1A adrenergic (Homo sapiens, UniProt P35348); assay: Alpha1A adrenergic calcium flux assay; type: cell-based
TBK1 = TBK1 (Homo sapiens, UniProt Q9UHD2); assay: kinase panel; type: biochemical
JAK2 = JAK2 (Homo sapiens, UniProt O60674); assay: kinase panel; type: biochemical
FLT-4 = FLT-4 (Homo sapiens, UniProt P35916); assay: kinase panel; type: biochemical
FLT-4, sequence (P35916 25-1363): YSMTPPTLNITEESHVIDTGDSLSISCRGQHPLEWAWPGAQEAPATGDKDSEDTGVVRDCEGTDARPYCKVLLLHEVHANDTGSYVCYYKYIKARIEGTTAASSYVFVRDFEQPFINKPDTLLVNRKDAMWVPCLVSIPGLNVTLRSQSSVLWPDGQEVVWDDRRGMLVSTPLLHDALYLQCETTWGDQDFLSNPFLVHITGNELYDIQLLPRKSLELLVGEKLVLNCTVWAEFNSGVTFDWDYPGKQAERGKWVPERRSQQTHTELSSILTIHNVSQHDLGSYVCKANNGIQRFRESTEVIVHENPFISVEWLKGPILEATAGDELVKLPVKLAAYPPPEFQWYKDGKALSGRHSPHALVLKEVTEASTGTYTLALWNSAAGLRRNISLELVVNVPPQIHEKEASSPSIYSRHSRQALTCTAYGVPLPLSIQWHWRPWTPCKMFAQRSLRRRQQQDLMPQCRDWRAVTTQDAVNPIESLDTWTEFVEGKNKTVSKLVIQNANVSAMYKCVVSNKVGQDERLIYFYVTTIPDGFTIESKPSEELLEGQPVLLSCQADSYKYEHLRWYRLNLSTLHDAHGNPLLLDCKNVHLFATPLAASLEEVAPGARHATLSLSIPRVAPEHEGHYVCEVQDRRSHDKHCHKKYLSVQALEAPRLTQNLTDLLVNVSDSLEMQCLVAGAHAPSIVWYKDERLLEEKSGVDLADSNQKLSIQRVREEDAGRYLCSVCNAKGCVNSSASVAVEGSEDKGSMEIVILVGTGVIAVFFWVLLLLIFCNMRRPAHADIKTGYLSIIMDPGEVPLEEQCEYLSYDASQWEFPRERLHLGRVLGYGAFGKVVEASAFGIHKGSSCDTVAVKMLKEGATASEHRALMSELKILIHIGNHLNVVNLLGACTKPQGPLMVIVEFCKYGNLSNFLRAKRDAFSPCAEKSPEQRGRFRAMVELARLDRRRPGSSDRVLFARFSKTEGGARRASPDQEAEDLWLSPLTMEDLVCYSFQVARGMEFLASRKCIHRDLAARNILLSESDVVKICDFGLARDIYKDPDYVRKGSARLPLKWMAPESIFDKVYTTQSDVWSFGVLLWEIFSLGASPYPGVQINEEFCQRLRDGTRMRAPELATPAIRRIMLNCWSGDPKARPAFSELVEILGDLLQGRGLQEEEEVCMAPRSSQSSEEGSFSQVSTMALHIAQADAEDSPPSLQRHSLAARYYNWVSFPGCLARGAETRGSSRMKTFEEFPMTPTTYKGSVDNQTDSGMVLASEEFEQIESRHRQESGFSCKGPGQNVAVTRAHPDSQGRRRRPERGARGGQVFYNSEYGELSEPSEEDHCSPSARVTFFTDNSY

O=C(Nc1nccs1)C(c1cc(F)ccc1O)N1Cc2ccccc2C1=O (centres unmarked) [EAI045, 2-(5-fluoro-2-hydroxyphenyl)-2-(1-oxo-2,3-dihydro-1H-isoindol-2-yl)-N-(1,3-thiazol-2-yl)acetamide] showed an inhibition at 1 µM (NEK2) of 2%, an inhibition at 1 µM (PI3K-DELTA) of 0% and an inhibition at 1 µM (EPH-B1) of 0%. For the same compound, the inhibition at 1 µM (SRC) was 0%, the inhibition at 1 µM (TSSK2) was 0% and the inhibition at 1 µM (EPH-A4) was 0%. The inhibition at 1 µM (RIPK2) was 0%, the inhibition at 1 µM (AURORA-A) was 0% and the inhibition at 1 µM (MST3) was 0%. The inhibition at 1 µM (TRKB) was 3%, the inhibition at 1 µM (SIK) was 0% and the inhibition at 1 µM (ERB-B2) was 4%. For the same compound, the inhibition at 1 µM (EPH-A8) was 0%, the inhibition at 1 µM (MSSK1) was 0% and the inhibition at 1 µM (HIPK4) was 0%. For the same compound, the inhibition at 1 µM (JAK3) was 0%, the inhibition at 1 µM (CLK3) was 0% and the inhibition at 1 µM (PI3K-GAMMA) was 0%. The pIC50 (H1 receptor) was less than 4.52, the inhibition at 1 µM (MAP4K4) was 2% and the inhibition at 1 µM (CK1-GAMMA2) was 0%. For the same compound, the inhibition at 1 µM (PRKG1) was 0%, the pIC50 (Histamine H1 receptor) was less than 4.52 and the inhibition at 1 µM (MST2) was 0%. The pIC50 (Progesterone Receptor) was less than 4.52, the inhibition at 1 µM (DAPK3) was 1% and the inhibition at 1 µM (AMP-A1B1G1) was 1%. For the same compound, the inhibition at 1 µM (GRK6) was 0%, the inhibition at 1 µM (CDK4-CYCLIND) was 0% and the pIC50 (Phosphodiesterase 4D) was less than 4.52. It also gave an inhibition at 1 µM (CAMK2D) of 4%, an inhibition at 1 µM (RET) of 0% and an inhibition at 1 µM (DYRK1A) of 0%. The inhibition at 1 µM (STK16) was 0%, the inhibition at 1 µM (CK1-GAMMA3) was 6% and the inhibition at 1 µM (EPH-B2) was 0%. For the same compound, the inhibition at 1 µM (TTK) was 0%, the inhibition at 1 µM (RSK3) was 0% and the inhibition at 1 µM (SGK2) was 0%. It also gave an inhibition at 1 µM (MAPK3) of 0%, a pIC50 (Alpha1A adrenergic) of less than 4.52 and an inhibition at 1 µM (TBK1) of 3%. It also gave an inhibition at 1 µM (JAK2) of 2% and an inhibition at 1 µM (FLT-4) of 1%.
